In US20160333419A1, “GENE SIGNATURES ASSOCIATED WITH SENSITIVITY TO MDM2 INHIBITORS” (DAIICHI SANKYO COMPANY, LIMITED, priority 2014, published 2016):

Key:
Experiment in all cases: OncoPanel cytotoxicity assay
Type in all cases: cell-based
639-V = settings: Homo sapiens, 72 hour incubation
Procedure, shortened: (§1)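 Cells grown in RPMI 1640 with 10% FBS (or a special medium) at 37° C, 5% CO2 were treated 24 hours after seeding for 72 hours with 10 concentrations (3.16-fold dilutions, 0.1% DMSO final). Nuclei were dye-stained and imaged; IC50 was fit from percent of control relative cell count.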

ACHN = settings: Homo sapiens, 72 hour incubation
Procedure, shortened: as §1

BFTC-905 = settings: Homo sapiens, 72 hour incubation
Procedure, shortened: as §1

BHT-101 = settings: Homo sapiens, 72 hour incubation
Procedure, shortened: as §1

BV-173 = settings: Homo sapiens, 72 hour incubation
Procedure, shortened: as §1

C32TG = settings: Homo sapiens, 72 hour incubation
Procedure, shortened: as §1

Calu6 = settings: Homo sapiens, Calu-6, 72 hour incubation
Procedure, shortened: as §1

Capan-1 = settings: Homo sapiens, 72 hour incubation
Procedure, shortened: as §1

Daoy = settings: Homo sapiens, 72 hour incubation
Procedure, shortened: as §1

G-402 = settings: Homo sapiens, 72 hour incubation
Procedure, shortened: as §1

HCT-8 = settings: Homo sapiens, 72 hour incubation
Procedure, shortened: as §1

HOS = settings: Homo sapiens, 72 hour incubation
Procedure, shortened: as §1

HS 746T = settings: Homo sapiens, Hs746T, 72 hour incubation
Procedure, shortened: as §1

HT = settings: Homo sapiens, 72 hour incubation
Procedure, shortened: as §1

HeLa = settings: Homo sapiens, 72 hour incubation
Procedure, shortened: as §1

Hs 578T = settings: Homo sapiens, 72 hour incubation
Procedure, shortened: as §1

Hs 695T = settings: Homo sapiens, 72 hour incubation
Procedure, shortened: as §1

LS1034 = settings: Homo sapiens, LS-1034, 72 hour incubation
Procedure, shortened: as §1

MG-63 = settings: Homo sapiens, 72 hour incubation
Procedure, shortened: as §1

MeWo = settings: Homo sapiens, 72 hour incubation
Procedure, shortened: as §1

Mia PaCa-2 = settings: Homo sapiens, 72 hour incubation
Procedure, shortened: as §1

NALM-6 = settings: Homo sapiens, 72 hour incubation
Procedure, shortened: as §1

NCI-H292 = settings: Homo sapiens, 72 hour incubation
Procedure, shortened: as §1

NCI-H596 = settings: Homo sapiens, 72 hour incubation
Procedure, shortened: as §1

PANC-1 = settings: Homo sapiens, 72 hour incubation
Procedure, shortened: as §1

RD = settings: Homo sapiens, 72 hour incubation
Procedure, shortened: as §1

SK-N-AS = settings: Homo sapiens, 72 hour incubation
Procedure, shortened: as §1

SK-UT-1 = settings: Homo sapiens, 72 hour incubation
Procedure, shortened: as §1

SKMES1 = settings: Homo sapiens, SK-MES-1, 72 hour incubation
Procedure, shortened: as §1

SKO-007 = settings: Homo sapiens, 72 hour incubation
Procedure, shortened: as §1

SNU-423 = settings: Homo sapiens, 72 hour incubation
Procedure, shortened: as §1

SW1353 = settings: Homo sapiens, 72 hour incubation
Procedure, shortened: as §1

SW962 = settings: Homo sapiens, SW 962, 72 hour incubation
Procedure, shortened: as §1

SiHa = settings: Homo sapiens, 72 hour incubation
Procedure, shortened: as §1

T24 = settings: Homo sapiens, T-24, 72 hour incubation
Procedure, shortened: as §1

T47D = settings: Homo sapiens, 72 hour incubation
Procedure, shortened: as §1

TCCSUP = settings: Homo sapiens, TCC-SUP, 72 hour incubation
Procedure, shortened: as §1

U266B1 = settings: Homo sapiens, 72 hour incubation
Procedure, shortened: as §1

Y79 = settings: Homo sapiens, 72 hour incubation
Procedure, shortened: as §1

Compound `CC[C@@H]1CNC2(CC2)CN1C(=O)[C@@H]1C[C@@H](F)CN1C(=O)C1=C(C(C)C)N2C(=N[C@@](C)(c3ccc(Cl)nc3)[C@H]2c2ccc(Cl)c(F)c2)S1` [Compound A, [(5R,6S)-5-(4-Chloro-3-fluorophenyl)-6-(6-chloropyridin-3-yl)-6-methyl-3-(propan-2-yl)-5,6-dihydroimidazo[2,1-b][1,3]thiazol-2-yl][(2S,4R)-2-{[(6R)-6-ethyl-4,7-diazaspiro[2.5]oct-7-yl]carbonyl}-4-fluoropyrrolidin-1-yl]methanone] has an IC50 (639-V) greater than 40 µM, an IC50 (ACHN) of 1.07 µM and an IC50 (BFTC-905) greater than 40 µM. The IC50 (BHT-101) was greater than 40 µM, the IC50 (BV-173) was 0.601 µM and the IC50 (C32TG) was 0.36 µM. The IC50 (Calu6) was greater than 40 µM, the IC50 (Capan-1) was greater than 40 µM and the IC50 (Daoy) was greater than 40 µM. For the same compound, the IC50 (G-402) was 0.568 µM, the IC50 (HCT-8) was 0.506 µM and the IC50 (HOS) was greater than 40 µM. For the same compound, the IC50 (HS 746T) was 38.9 µM, the IC50 (HT) was greater than 40 µM and the IC50 (HeLa) was greater than 40 µM. It also gave an IC50 (Hs 578T) greater than 40 µM, an IC50 (Hs 695T) of 1.28 µM and an IC50 (LS1034) greater than 40 µM. It also gave an IC50 (MG-63) greater than 40 µM, an IC50 (MeWo) greater than 40 µM and an IC50 (Mia PaCa-2) greater than 40 µM. It also gave an IC50 (NALM-6) of 0.658 µM, an IC50 (NCI-H292) of 0.479 µM and an IC50 (NCI-H596) greater than 40 µM. It also gave an IC50 (PANC-1) greater than 40 µM, an IC50 (RD) greater than 40 µM and an IC50 (SK-N-AS) greater than 40 µM. The IC50 (SK-UT-1) was greater than 40 µM, the IC50 (SKMES1) was 33.8 µM and the IC50 (SKO-007) was greater than 40 µM. For the same compound, the IC50 (SNU-423) was greater than 40 µM, the IC50 (SW1353) was 1.68 µM and the IC50 (SW962) was greater than 40 µM. The IC50 (SiHa) was greater than 40 µM, the IC50 (T24) was greater than 40 µM and the IC50 (T47D) was 32.3 µM. It also gave an IC50 (TCCSUP) greater than 40 µM, an IC50 (U266B1) greater than 40 µM and an IC50 (Y79) of 1.05 µM.

For `CC1(C)CCC2(CC1)N[C@@H](C(=O)N[C@@H]1CC[C@@H](C(N)=O)OC1)[C@H](c1ccnc(Cl)c1F)[C@]21C(=O)Nc2cc(Cl)ccc21` [Compound B, (3′R,4′S,5′R)—N-[(3R,6S)-6-carbamoyltetrahydro-2H-pyran-3-yl]-6″-chloro-4′-(2-chloro-3-fluoropyridin-4-yl)-4,4-dimethyl-2″-oxo-1″,2″-dihydrodispiro[cyclohexane-1,2′-pyrrolidine-3′,3″-indole]-5′-carboxamide], the IC50 (639-V) was 6.39 µM, the IC50 (ACHN) was 0.174 µM and the IC50 (BFTC-905) was 8.51 µM. It also gave an IC50 (BHT-101) greater than 10 µM, an IC50 (BV-173) of 0.0873 µM and an IC50 (C32TG) of 0.0329 µM. It also gave an IC50 (Calu6) of 5.38 µM, an IC50 (Capan-1) greater than 10 µM and an IC50 (Daoy) greater than 10 µM. The IC50 (G-402) was 0.0261 µM, the IC50 (HCT-8) was 0.0516 µM and the IC50 (HOS) was greater than 10 µM. The IC50 (HS 746T) was 5.85 µM, the IC50 (HT) was greater than 10 µM and the IC50 (HeLa) was greater than 10 µM. For the same compound, the IC50 (Hs 578T) was greater than 10 µM, the IC50 (Hs 695T) was 0.174 µM and the IC50 (LS1034) was greater than 10 µM. The IC50 (MG-63) was greater than 10 µM, the IC50 (MeWo) was greater than 10 µM and the IC50 (Mia PaCa-2) was 7.22 µM. The IC50 (NALM-6) was 0.065 µM, the IC50 (NCI-H292) was 0.0347 µM and the IC50 (NCI-H596) was greater than 10 µM. It also gave an IC50 (PANC-1) of 6.73 µM, an IC50 (RD) of 7.2 µM and an IC50 (SK-N-AS) of 8.29 µM. The IC50 (SK-UT-1) was greater than 10 µM, the IC50 (SKMES1) was 8.73 µM and the IC50 (SKO-007) was 8.64 µM. It also gave an IC50 (SNU-423) greater than 10 µM, an IC50 (SW1353) of 0.0853 µM and an IC50 (SW962) greater than 10 µM. It also gave an IC50 (SiHa) greater than 10 µM, an IC50 (T24) greater than 10 µM and an IC50 (T47D) of 7.76 µM. For the same compound, the IC50 (TCCSUP) was greater than 10 µM, the IC50 (U266B1) was greater than 10 µM and the IC50 (Y79) was 0.159 µM.
